Reference: publication PMC10890530, “Meirols A–C: Bioactive Catecholic Compounds from the Marine-Derived Fungus Meira sp. 1210CH-42” (Marine Drugs, 2024)
Read-outs that look alike come from different tables or passages of the source.

How the values were obtained:
[1] = DPPH radical scavenging activity assay; settings: half maximal effective concentration; triplicate; read-out: DPPH Radical Scavenging Activity (EC50 ± SD)
Procedure: The DPPH radical scavenging activities of 1–4 were determined by the reported method. In a 96-well plate, 100 μL of sample solution (in MeOH) was mixed with 100 μL of DPPH solution (0.16 mM in MeOH), shaken several times, and then incubated at room temperature for 30 min. The absorbance at 517 nm was recorded. Ascorbic acid was used as the positive control, and the experiments were performed in triplicate.

[2] = tested on: NALM6, B cell acute lymphocytic leukemia; test: Cytotoxicity assay, NALM6 blood cancer cell line; type: cell-based; settings: triplicate, read-out: Cytotoxic Activity (GI50 ± SD, μM) NALM6
Procedure: (§1) NMR spectra were acquired with a Bruker AVANCE III 600 spectrometer (Bruker Biospin GmbH, Rheinstetten, Germany) with a 3 mm probe operating at 600 MHz (^1H) and 150 MHz (^13C). Chemical shifts were expressed in ppm with reference to the solvent peaks (δH 3.31 and δC 49.15 ppm for CD3OD). UV spectra were recorded with a Shimadzu UV-1650PC spectrophotometer (Shimadzu Corporation, Kyoto, Japan). IR spectra were obtained on an OPUS FT/IR-ALPHA II spectrophotometer (Bruker OPTIK GmbH & Co. KG, Ettlingen, Germany). Optical rotations were measured with a Rudolph analytical Autopol III S2 polarimeter (Rudolph Research Analytical, Hackettstown, NJ, USA). LR-ESIMS data were obtained with an ISQ EM mass spectrometer. HR-ESIMS data were obtained with a Waters SYNPT G2 Q-TOF mass spectrometer (Waters Corporation, Milford, MA, USA) at the Korea Basic Science Institute (KBSI) in Cheongju, Republic of Korea. ECD spectra were recorded with a JASCO J-1500 circular dichroism spectrometer (JASCO Corporation, Tokyo, Japan) at the Center for Research Facilities, Changwon National University, in Changwon, Republic of Korea. HPLC was performed using a BLS-Class pump (Teledyne SSI, Inc., State College, PA 16803, USA) with a Shodex RI-201H refractive index detector (Shoko Scientific Co., Ltd., Yokohama, Japan). Columns for HPLC were YMC-Triart C18 (250 mm × 10 mm, 5 μm), YMC-Triart C8 (250 mm × 10 mm, 5 μm), and YMC-CHIRAL PREP CD PM (250 mm × 4.6 mm, S-10 μm). RP silica gel (YMC-Gel ODS-A, 12 nm, S-75 μm) was used for open-column chromatography. Organic solvents were purchased as HPLC grade, and ultrapure waters were obtained from the Milipore Mili-Q Direct 8 system. The reagents used in the bioassay were purchased from Sigma-Aldrich and Tokyo Chemical Industry. Cancer cell lines were purchased from the Japanese Cancer Research Resources Bank (JCRB) (NUGC-3, JCRB Cell Bank/Cat. # JCRB0822), the DSMZ-German Collection of Microorganisms and Cell Cultures (RPMI-8402, DSMZ/Cat # ACC 290; WSU-DLCL2, DSMZ/Cat # ACC 575), and the American Type Culture Collection (ATCC) (PC-3, ATCC/Cat. # CRL-1435; MDA-MB-231, ATCC/Cat. # HTB-26; ACHN, ATCC/Cat. # CRL-1611; NCI-H23, ATCC/Cat. # CRL-5800; HCT-15, ATCC/Cat. # CCL-225; HL-60, ATCC/Cat. # CCL-240; Raji, ATCC/Cat # CCL-86; K562, ATCC/Cat # CCL-243; NALM6, ATCC/Cat # CRL-3273; U266, ATCC/Cat # TIB-196).
(§2) The cytotoxic activities of 1–4 were measured using the CellTiter-Glo luminescent cell viability assay (Promega, Madison, WI, USA) and conducted by the […], as previously described. The luminescence signal was quantified using a GloMax-Multi Detection System (Promega, Madison, WI, USA), and GI50 values were determined utilizing a relative GI50 model in GraphPad Prism (GraphPad, San Diego, CA, USA). Doxorubicin was used as the positive control.

[3] = tested on: RPMI-8402, T cell acute lymphocytic leukemia; test: Cytotoxicity assay, RPMI-8402 blood cancer cell line; type: cell-based; settings: Homo sapiens, 50% growth inhibitory concentration, triplicate, read-out: Cytotoxic Activity (GI50 ± SD, μM) RPMI-8402
Procedure: as §1, §2

α-glucosidase = α-glucosidase inhibitory activity assay (pNPG hydrolysis); type: biochemical; settings: 50% inhibitory concentration; triplicate; read-out: α-Glucosidase Inhibitory Activity (IC50 ± SD)
Procedure: The α-glucosidase inhibitory activity was determined by measuring the absorbance increase resulting from the hydrolysis of p-nitrophenyl-α-D-glucopyranoside (pNPG, TCI) by α-glucosidase at 405 nm using a microplate reader, according to the reference to previously reported literature. The 130 μL sample solution (in 0.1 mM PBS) with the 30 μL α-glucosidase solution (0.2 U/mL) was incubated at 37 °C for 10 min. Subsequently, 40 μL of 5 mM pNPG was added. The reaction mixture was further incubated at 37 °C for 20 min. The α-glucosidase inhibitory activity was determined using a microplate reader at 405 nm. The negative control was prepared by substituting PBS buffer for the sample in the same way as the test.

[4] = 50% growth inhibitory concentration
[5] = Homo sapiens, NALM-6, 50% growth inhibitory concentration

O=C1O[C@H]([C@@H](O)CO)C(O)=C1O [Ascorbic acid, reference compound]
EC50 [1]: 7.81 ± 0.25 µM

O=C1CCc2c1ccc(O)c2O [Compound 1, 4,5-dihydroxyindan-1-one]
GI50 [2, 4]: 9.47 ± 0.41 µM | GI50 [2, 5]: 9.48 µM | GI50 [3]: 21 ± 0.47 µM | EC50 [1]: 7.47 ± 0.13 µM | IC50 (α-glucosidase): 184 ± 2.93 µM

O=C1NCc2c1ccc(O)c2O [Compound 2, 4,5-dihydroxyisoindolin-1-one]
GI50 [2, 4]: 29.6 ± 2.27 µM | GI50 [2, 5]: 29.4 µM | GI50 [3]: > 30 µM | EC50 [1]: 6.82 ± 0.06 µM | IC50 (α-glucosidase): 199.7 ± 1.87 µM

O=C1C[C@@H](O)c2c1ccc(O)c2O [Compound 3, meirol B]
GI50 [2, 5]: > 30 µM | GI50 [3]: > 30 µM | EC50 [1]: 6.01 ± 0.07 µM | IC50 (α-glucosidase): 367.4 ± 3.01 µM

O=C1c2ccc(O)c(O)c2C[C@@H]1O [Compound 4, meirol C]
GI50 [2, 5]: > 30 µM | GI50 [3]: > 30 µM | EC50 [1]: 6.2 ± 0.12 µM | IC50 (α-glucosidase): > 555 µM

COc1cccc2c1C(=O)c1c(O)c3c(c(O)c1C2=O)C[C@@](O)(C(=O)CO)C[C@@H]3O[C@H]1C[C@H](N)[C@H](O)[C@H](C)O1 [Doxorubicin, reference compound]
GI50 [2, 5]: 0.003 ± 0.0006 µM | GI50 [3]: 0.015 ± 0.0013 µM
